The experiment addresses T1, Cholesteryl ester transfer protein (Homo sapiens, UniProt P11597).
T1 sequence (P11597 whole entry): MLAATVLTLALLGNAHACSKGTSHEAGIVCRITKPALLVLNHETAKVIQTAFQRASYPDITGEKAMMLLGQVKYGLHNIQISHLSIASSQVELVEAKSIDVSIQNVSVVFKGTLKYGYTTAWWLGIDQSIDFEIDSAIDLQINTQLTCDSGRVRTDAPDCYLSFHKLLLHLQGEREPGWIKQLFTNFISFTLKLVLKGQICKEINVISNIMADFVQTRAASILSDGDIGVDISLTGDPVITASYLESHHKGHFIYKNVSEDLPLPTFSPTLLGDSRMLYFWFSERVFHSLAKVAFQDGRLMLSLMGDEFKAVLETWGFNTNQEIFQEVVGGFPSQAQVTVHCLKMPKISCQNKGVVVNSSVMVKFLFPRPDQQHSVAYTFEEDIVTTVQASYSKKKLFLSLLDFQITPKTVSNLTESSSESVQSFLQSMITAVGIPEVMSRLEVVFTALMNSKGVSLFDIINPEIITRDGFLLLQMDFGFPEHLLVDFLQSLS
The experiment can be described thus: Scintillation Proximity Assay (SPA): First, low density lipoprotein (LDL) (Meridian) was biotinylated by incubating LDL with biotin for 1 hour on ice, after which it was dialyzed to remove free biotin. Then compounds at varying concentrations were incubated with 15 nM CETP (reagent production group, In Vitro Pharmacology, MRL Rahway) and 50 ug/ml of the biotinylated LDL in 50 mM HEPES, 150 mM NaCl, pH 7.4, for 1 hour at 37° C. The reaction was started by adding 3H-cholesterol ester high density lipoprotein (HDL) (American Radiochemicals Corp) at a concentration of ~0.6 nM. The reaction proceeded for 2 hours at 37° C., after which time it was quenched by the addition of 12% acetic acid. PVT streptavadin-coated scintillation proximity beads, which had been brought to room temperature, were then added at a concentration of 4 mg/ml. The assay was then mixed and counted after one half hour in a Microbeta plate reader.

The term IC50 denotes the point on the concentration scale where inhibition reaches its midpoint. High values mean lower potency, low ones higher potency. `N#Cc1cccc(-c2ccc(C(F)(F)F)cc2[C@@H]2CC[C@H]3[C@@H](c4cc(C(F)(F)F)cc(C(F)(F)F)c4)OC(=O)N23)c1`: it took 177 nM to reach half-maximal inhibition (IC50).
